According to PubChem BioAssay AID720600 (Broad Institute, 2013):
Records with an inconclusive call do not appear.

System: SNB-19 viability, Alamar Blue fluorescence, 8-48 h
Test: cytotoxicity in SNB-19 CNS tumor cells – cell-based, Alamar Blue fluorescence, 8/24/48 h, dry powder, HRAS target identification, dose response (AID 720600)

C#CCCCC(=O)NCCOCCOCCOc1ccc(N(C(=O)CCl)C(C(=O)NCCc2ccccc2)c2cccs2)cc1Cl (configuration not stated)
AC50 (measured here: 24 h treatment): 946 nM
AC50 (measured here: 48 h treatment): 2780 nM

CC(C)(C)OC(=O)NCCOCCOCCOc1ccc(N(C(=O)CCl)C(C(=O)NCCc2ccccc2)c2cccs2)cc1Cl (configuration not stated)
AC50 (measured here: 24 h treatment): 296 nM
AC50 (measured here: 48 h treatment): 353 nM

COc1ccc(N(C(=O)CCl)C(C(=O)NCCc2ccccc2)c2cccs2)cc1Cl (configuration not stated)
AC50 (measured here: 8 h treatment): 77.1 nM
AC50 (measured here: 24 h treatment): 112 nM
AC50 (measured here: 48 h treatment): 149 nM
